For one assay, the target named is T1, B1R receptor of the rat (CHO K1 cells stably transfected with the B1R gene of the rat) (Rattus norvegicus, UniProt P97583).
T1 construct: expressed in transfected cells; host or cells: CHO K1 cells (Chinese hamster ovary), stably transfected
T1 sequence (P97583 1-337): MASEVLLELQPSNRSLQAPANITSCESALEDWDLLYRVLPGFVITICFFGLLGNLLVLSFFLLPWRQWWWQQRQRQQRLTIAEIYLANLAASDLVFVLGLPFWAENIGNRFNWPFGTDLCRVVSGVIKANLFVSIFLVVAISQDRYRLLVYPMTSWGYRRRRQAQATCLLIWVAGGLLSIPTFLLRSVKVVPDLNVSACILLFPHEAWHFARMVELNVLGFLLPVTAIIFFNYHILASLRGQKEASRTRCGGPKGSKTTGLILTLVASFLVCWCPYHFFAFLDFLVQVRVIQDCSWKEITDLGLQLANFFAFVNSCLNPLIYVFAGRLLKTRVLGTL
Briefly: Functional study on the bradykinin receptor 1 (B1R), Ca2+ fluorescence (Fluo-4) FLIPR/Novostar assay, rB1R cells. The class given is cell-based. Particulars: CHO-K1, 10 μM, library compounds CC_H, read-out: % Inhibition (r-B1R) at 10 μM. The procedure:
The agonistic or antagonistic action of substances can be quantified on the bradykinin receptor 1 (B1R) of the species human and rat using ectopically expressing cell lines (CHO K1 cells) and with the aid of a Ca^2+-sensitive dye (Fluo-4) using a fluorescent imaging plate reader (FLIPR). The indication in % activation is based on the Ca^2+ signal after addition of Lys-Des-Arg^9-bradykinin (0.5 nM) or Des-Arg^9-bradykinin (100 nM). Antagonists lead to suppression of the Ca^2+ influx after the addition of the agonist. % Inhibition compared with the maximum achievable inhibition is indicated.
The agonistic or antagonistic action of substances can be determined on the bradykinin receptor 1 (B1R) of the species human and rat using the following assay. According to this assay, the increase in intracellular Ca^2+ following administration of a B1R agonist is quantified with the aid of a Ca^2+-sensitive dye (Fluo-4 type, Molecular Probes Europe BV, Leiden, Netherlands) using a Fluorescent Imaging Plate Reader (FLIPR, Molecular Devices, Sunnyvale, USA) and/or using a Novostar (BMG Labtech GmbH, Offenburg, Germany).
Chinese hamster ovary cells (CHO K1 cells) which have been stably transfected with the human B1R gene (hB1R cells) or with the B1R gene of the rat (rB1R cells) are used. For functional studies, the cells are plated out on black 96-well plates having a clear base (BD Biosciences, Heidelberg, Germany or Greiner, Frickenhausen, Germany) in a density of 20,000-35,000 cells/well. The cells are left overnight at 37° C. and with 5% CO2 in culture medium (hB1R cells: Nutrient Mixture Ham's F12, Gibco Invitrogen GmbH, Karlsruhe, Germany or DMEM, Sigma-Aldrich, Taufkirchen, Germany; rB1R cells: D-MEM/F12, Gibco Invitrogen GmbH, Karlsruhe, Germany), with 10 vol. % FBS (fetal bovine serum, Gibco Invitrogen GmbH, Karlsruhe, Germany or PAN Biotech GmbH, Aidenbach, Germany). On the following day, the cells are loaded for 60 minutes at 37° C. with 2.13 μM Fluo-4 (Molecular Probes Europe BV, Leiden, Netherlands) in HBSS buffer (Hank's buffered saline solution, Gibco Invitrogen GmbH, Karlsruhe, Germany) […] (Sigma-Aldrich, Taufkirchen, Germany) and 10 mM HEPES (Sigma-Aldrich, Taufkirchen, Germany). The plates are then washed twice with HBSS buffer, and HBSS buffer additionally containing 0.1% BSA (bovine serum albumin; Sigma-Aldrich, Taufkirchen, Germany), 5.6 mM glucose and 0.05% gelatin (Merck KGaA, Darmstadt, Germany) is added to the plates. After incubation for a further 20 minutes at room temperature, the plates are inserted into the FLIPR or Novostar for Ca^2+ measurement. Alternatively, washing is carried out with buffer A (15 mM HEPES, 80 mM NaCl, 5 mM KCl, 1.2 mM CaCl2, 0.7 mM MgSO4, 2 g/l glucose, 2.5 mM probenecid) followed by loading with buffer A with added 2.5 μM Fluo-4 and 0.025% Pluronic F127 (Sigma-Aldrich, Taufkirchen, Germany). The cells are then washed twice with buffer A and incubated for 30 minutes at room temperature with buffer A additionally containing 0.05% BSA and 0.05% gelatin and are then inserted into the FLIPR or Novostar for Ca^2+ measurement. The Ca^2+-dependent fluorescence is measured before and after the addition of substances (λex=488 nm, λem=540 nm). Quantification is carried out by measuring the highest fluorescence intensity (FC, fluorescence counts) over time.
The FLIPR protocol consists of 2 substance additions, which are pipetted in the FLIPR. In the case of measurements using the Novostar, only the second substance addition is pipetted in the device. Both devices measure the fluorescence intensity over time. Test substances (10 μM) are first pipetted onto the cells and the intracellular Ca^2+ increase is compared with the control (hB1R: Lys-Des-Arg^9-bradykinin>=50 nM; rB1R: Des-Arg^9-bradykinin>=1 μM). This gives the % activation, based on the Ca^2+ signal after addition of Lys-Des-Arg^9-bradykinin (>=50 nM) or Des-Arg^9-bradykinin (>=1 μM). […]
Regarding `CN(C)c1nccc(N2CCC(N(C)C(=O)c3ccc4c(c3)C(NC(=O)c3ccccc3Cl)CC4)CC2)n1` (stereo not drawn) [CC_H-623, 3-[(2-Chloro-benzoyl)amino]-N-[1-(2-dimethylamino-pyrimidin-4-yl)-piperidin-4-yl]-N-methyl-2,3-dihydro-1H-indene-5-carboxylic acid amide], the inhibition at 10 µM amounted to 101%.

Regarding `Cc1cc(N2CCC(N(C)C(=O)c3ccc4c(c3)C(NC(=O)c3cccnc3C(F)(F)F)CC4)CC2)nc(N(C)C)n1` (stereo not drawn) [CC_H-604, N-[6-[[1-(2-Dimethylamino-6-methyl-pyrimidin-4-yl)-piperidin-4-yl]-methyl-carbamoyl]-2,3-dihydro-1H-inden-1-yl]-2-(trifluoromethyl)-pyridine-3-carboxylic acid amide], the inhibition at 10 µM was 102%.

For `CN(C(=O)c1ccc2c(c1)C(NC(=O)c1cccnc1C(F)(F)F)CC2)C1CCN(c2ccnc(C3CC3)n2)CC1` (stereo not drawn) [CC_H-610, N-[6-[[1-(2-Cyclopropyl-pyrimidin-4-yl)-piperidin-4-yl]-methyl-carbamoyl]-2,3-dihydro-1H-inden-1-yl]-2-(trifluoromethyl)-pyridine-3-carboxylic acid amide], the inhibition at 10 µM amounted to 101%.

Still in this assay, the particulars now being: CHO-K1, 10 μM, read-out: % Inhibition (r-B1R) at 10 μM.
In the case of `Cc1cc(N2CCC(N(C)C(=O)c3ccc4c(c3)C(NC(=O)c3cc(F)ccc3Cl)CC4)CC2)cc(C)n1` (stereo not drawn) [CC_H-294, 3-[(2-Chloro-5-fluoro-benzoyl)amino]-N-[1-(2,6-dimethyl-pyridin-4-yl)-piperidin-4-yl]-N-methyl-2,3-dihydro-1H-indene-5-carboxylic acid amide], the inhibition at 10 µM was found to be 111%.

Regarding `CCCC(=O)N(C)C1CCc2ccc(C(=O)N(C)C3CCN(c4cc(C)nc(C)c4)CC3)cc21` (stereo not drawn) [CC_H-353, 3-(Butanoyl-methyl-amino)-N-[1-(2,6-dimethyl-pyridin-4-yl)-piperidin-4-yl]-N-methyl-2,3-dihydro-1H-indene-5-carboxylic acid amide], the inhibition at 10 µM came out at 84%.

Take `CN(C(=O)c1ccc2c(c1)C(NC(=O)C1CC1)CC2)C1CCN(c2ccc3cnccc3c2)CC1` (stereo not drawn) [CC_H-361, 3-(Cyclopropanecarbonylamino)-N-(1-isoquinolin-6-yl-piperidin-4-yl)-N-methyl-2,3-dihydro-1H-indene-5-carboxylic acid amide]: the inhibition at 10 µM came to 110%.

On to `CN(C(=O)NC1CCOc2ccc(C(=O)N(C)C3CCN(c4ccncc4)CC3)cc21)c1ccccc1Cl` (stereo not drawn) [CC_H-292, 4-[[(2-Chlorophenyl)-methyl-carbamoyl]amino]-N-methyl-N-(1-pyridin-4-yl-piperidin-4-yl)-3,4-dihydro-2H-chromene-6-carboxylic acid amide], for which the inhibition at 10 µM came to 102%.

With `CC(=O)NC1CCOc2ccc(C(=O)N(C)C3CCN(c4ccncc4)CC3)cc21` (stereo not drawn) [CC_H-277, 4-Acetylamino-N-methyl-N-(1-pyridin-4-yl-piperidin-4-yl)-3,4-dihydro-2H-chromene-6-carboxylic acid amide], the inhibition at 10 µM is 100%.

`CN(C(=O)c1ccc2c(c1)C(N(C)C(=O)Nc1cccc(Cl)c1Cl)CC2)C1CCN(c2ccncc2)CC1` (stereo not drawn) [CC_H-220, 3-[[(2,3-Dichloro-phenyl)-carbamoyl]-methyl-amino]-N-methyl-N-(1-pyridin-4-yl-piperidin-4-yl)-2,3-dihydro-1H-indene-5-carboxylic acid amide]: the inhibition at 10 µM is 107%.

Regarding `CN(C(=O)c1ccc2c(c1)C(NC(=O)Nc1ccc(F)c(Cl)c1)CCC2)C1CCN(c2ccncc2)CC1` (stereo not drawn) [CC_H-265, 8-[[(3-Chloro-4-fluoro-phenyl)-carbamoyl]amino]-N-methyl-N-(1-pyridin-4-yl-piperidin-4-yl)-5,6,7,8-tetrahydro-naphthalene-2-carboxylic acid amide], the inhibition at 10 µM turned out to be 105%.

In the case of `CN(C(=O)c1ccc2c(c1)C(N(C)C(=O)Nc1cc(Cl)ccc1Cl)CC2)C1CCN(c2ccncc2)CC1` (stereo not drawn) [CC_H-221, 3-[[(2,5-Dichloro-phenyl)-carbamoyl]-methyl-amino]-N-methyl-N-(1-pyridin-4-yl-piperidin-4-yl)-2,3-dihydro-1H-indene-5-carboxylic acid amide], the inhibition at 10 µM is 67%.

As for `Cc1cc(N2CCC(N(C)C(=O)c3ccc4c(c3)C(N(C)C(=O)N(C)c3ccccc3Cl)CC4)CC2)cc(C)n1` (stereo not drawn) [CC_H-349, 3-[[(2-Chlorophenyl)-methyl-carbamoyl]-methyl-amino]-N-[1-(2,6-dimethyl-pyridin-4-yl)-piperidin-4-yl]-N-methyl-2,3-dihydro-1H-indene-5-carboxylic acid amide], the inhibition at 10 µM amounted to 80%.

`CN(C(=O)c1ccc2c(c1)C(N(C)C(=O)C1CC1)CC2)C1CCN(c2ccncc2)CC1` (stereo not drawn) [CC_H-212, 3-(Cyclopropanecarbonyl-methyl-amino)-N-methyl-N-(1-pyridin-4-yl-piperidin-4-yl)-2,3-dihydro-1H-indene-5-carboxylic acid amide]: the inhibition at 10 µM was found to be 108%.

As to `CN(C(=O)c1ccc2c(c1)C(N(C)C(=O)Nc1c(Cl)cccc1Cl)CC2)C1CCN(c2ccncc2)CC1` (stereo not drawn) [CC_H-219, 3-[[(2,6-Dichloro-phenyl)-carbamoyl]-methyl-amino]-N-methyl-N-(1-pyridin-4-yl-piperidin-4-yl)-2,3-dihydro-1H-indene-5-carboxylic acid amide], the inhibition at 10 µM is 86%.

With `CN(C(=O)c1ccc2c(c1)C(NC(=O)CC(C)(C)C)CC2(C)C)C1CCN(c2ccncc2)CC1` (stereo not drawn) [CC_H-227, 3-(3,3-Dimethyl-butanoylamino)-N,1,1-trimethyl-N-(1-pyridin-4-yl-piperidin-4-yl)-2,3-dihydro-indene-5-carboxylic acid amide], the inhibition at 10 µM was 112%.

In the case of `Cc1cc(N2CCC(N(C)C(=O)c3ccc4c(c3)C(NC(=O)N(C)c3ccc(Cl)cc3Cl)CC4)CC2)cc(C)n1` (stereo not drawn) [CC_H-317, 3-[[(2,4-Dichlorophenyl)-methyl-carbamoyl]amino]-N-[1-(2,6-dimethyl-pyridin-4-yl)-piperidin-4-yl]-N-methyl-2,3-dihydro-1H-indene-5-carboxylic acid amide], the inhibition at 10 µM is 110%.

Regarding `Cc1ccc(F)c(C(=O)N(C)C2CCc3ccc(C(=O)N(C)C4CCN(c5ccncc5)CC4)cc32)c1Cl` (stereo not drawn) [CC_H-209, 3-[(2-Chloro-6-fluoro-3-methyl-benzoyl)-methyl-amino]-N-methyl-N-(1-pyridin-4-yl-piperidin-4-yl)-2,3-dihydro-1H-indene-5-carboxylic acid amide], the inhibition at 10 µM is 112%.

Regarding `CN(C(=O)c1ccc2c(c1)C(NC(=O)c1cc(C(F)(F)F)ccc1Cl)CCO2)C1CCN(c2ccncc2)CC1` (stereo not drawn) [CC_H-272, 4-[[2-Chloro-5-(trifluoromethyl)-benzoyl]amino]-N-methyl-N-(1-pyridin-4-yl-piperidin-4-yl)-3,4-dihydro-2H-chromene-6-carboxylic acid amide], the inhibition at 10 µM was found to be 112%.

(Values after patent US8680159B2, “Bradykinin 1 receptor modulating compounds” (Gruenenthal GmbH, priority 2010, dated 2014).)
